These results are taken from patent US20060241082A1, “Modulating vesicular monoamine transporter trafficking and function: a novel approach for the treatment of parkinson's disease” (priority 2002, published 2006).

Several values for one entry are separate records, joined by “and”; a condition that tells them apart may be missing. Equal values may be shown once. Entries after “also recorded” stand apart in the source; their conditions may differ. Read-outs that look alike come from different tables or passages of the source.

The test system of experiment [1] is VMAT-2. Briefly: VMAT-2 immunoreactivity in striatal subcellular fractions (P2, P3, S3) of treated rats (Western blot). The note with it: 1 h. The class given is in vivo, rat. On the procedure: Striatal synaptosomes were prepared from rats decapitated 1 h after treatment as previously described (Fleckenstein et al., 1997). Briefly, striatal tissue was homogenized in cold 0.32 M sucrose and centrifuged (800×g for 12 min; 4° C.). The supernatant (S1) was then centrifuged (22,000×g for 15 min; 4° C.) and the resulting pellet (P2, synaptosomal fraction) was resuspended at 50 mg original wet weight/ml in cold water and a portion saved for western blot analysis. The remainder of the synaptosomal sample was centrifuged for 20 min at 22,000×g (4° C.) to pellet lysed synaptosomal membranes (P3, synaptosomal membrane fraction), which were then resuspended at 50 mg original wet weight/ml and saved for western blot analysis. Prior to resuspension of the plasmalemmal membrane fraction the supernatant (S3, vesicle-enriched fraction) was removed and saved for western blot analysis.
Binding of VMAT-2 antibody was performed using 60 μl aliquots of synaptosomal (P2), synaptosomal membrane (P3), or vesicle-enriched (S3) preparations. Each aliquot was added to 20 μl of loading buffer (final concentration: 2.25% sodium dodecyl sulfate, 18% glycerol, 180 mM Tris base (pH 6.8), 10% β-mercapto-ethanol and bromophenol blue), boiled for 10 min, and loaded on a 10% sodium dodecyl sulfate-polyacrylamide gel. Following electrophoresis, samples were transferred to polyvinlylidene difluoride membrane, blocked with 5% nonfat dry milk in Tris-buffered saline with tween (250 mM NaCl, 50 mM Tris pH 7.4 and 0.05% Tween 20), and probed with the VMAT-2 antibody (provided by J.W.H.). Bound antibody was visualized with HRP-conjugated goat anti-rabbit antibody, and antigen-antibody complexes were visualized by chemiluminescence. Multiple exposures of blots were obtained to ensure development within the linear range of the film. Bands on blots were quantified by densitometry using Kodak 1D image-analysis software.
Fresh striatal tissue was homogenized in ice-cold 0.32 M sucrose and centrifuged (800×g for 12 min; 4° C.). […] Resuspended tissue was aliquoted into two test tubes. One aliquot was centrifuged (22,000×g for 10 min; 4° C.) to separate plasmalemmal membranes from the synaptic vesicle-enriched fraction. The resulting supernatant (S3) contained the vesicular subcellular fraction of interest, and the pellets (P3; plasmalemmal membrane fraction) were resuspended in cold distilled deionized water.
VMAT-2 antibody was purchased from Chemicon (Temecula, Calif.; AB1767). Binding of VMAT-2 antibody was performed using 60 μl of whole synaptosomal, plasmalemmal membrane or vesicle subcellular fractions. Samples were added to 20 μl of loading buffer (final concentration: 2.25% SDS, 18% glycerol, 180 mM Tris Base (pH 6.8), 10% […] and bromophenol blue). Approximately 60 μg protein of the whole synaptosomal fraction, 40 μg protein of the plasmalemmal membrane fraction or 20 μg protein of the vesicle subcellular fraction was loaded per well in a 10% SDS-polyacrylamide gel. Following electrophoresis, samples were transferred to polyvinylidene difluoride hybridization transfer membrane (New England Nuclear (NEN), Boston, Mass.). All subsequent incubation steps were performed at room temperature while shaking. Each membrane was first blocked for 2 h in 100 ml of tris buffer saline with tween (TBST; 250 mM NaCl, 50 mM tris pH 7.4 and 0.05% tween 20) containing 5% nonfat dry milk. Each membrane was then incubated with anti-VMAT-2 antibody (1:4000 dilution) in 13 ml of TBST with 5% milk for 1 h and then washed 5 times (2×1 min wash; 3×5 min wash) in 70 ml TBST with 5% milk.

In experiment [2] the target is T1, VMAT-2 (Rattus norvegicus, UniProt Q01827). The class given is in vivo. Also noted: purified striatal vesicles prepared from treated rats; from tissue; host or cells: striatum of male Sprague-Dawley rats (synaptic vesicles; P2, P3, S3 fractions). The note with it: for Km: read-out: Km of vesicular [3H]DA uptake. On the procedure:
Osmolarity was restored by addition of N-(2-hydroxyethyl)-piperazine-N′-2-ethanesulfonic acid (HEPES) and potassium tartrate 25 mM and 100 mM (final concentrations; pH 7.5 at 4° C.), respectively.

The target of experiment [3] is VMAT-2 (Mus musculus, UniProt Q8BRU6). Briefly: Vesicular [3H]dopamine uptake in striatal vesicles prepared from treated mice. Type of experiment: in vivo. On the procedure: (A. E. Fleckenstein, et al., J. Pharmacol Exp Ther. (1997) 282:834-838). Briefly, fresh tissue was homogenized in ice-cold 0.32 M sucrose. The homogenate was centrifuged (800×g for 12 min; 4° C.), and the supernatant (S1) was carefully removed and centrifuged (22,000×g for 15 min; 4° C.) to obtain the synaptosomal-containing pellet (P2). The resulting P2 were resuspended and homogenized in ice-cold distilled deionized water. Osmolarity was restore by addition 25 mM HEPES and 100 mM potassium tartrate (final concentration; pH 7.5 at 4° C. respectively). […] The resultant S3 removed and MgSO4 added (final concentration of [1 mM] pH 7.5 at 4° C.) and centrifuged at 100,000×g for 45 min. The final P4 were resuspended at 50 mg/ml (original tissue wet weight).
Sequence of VMAT-2 (Mus musculus, UniProt Q8BRU6) (Q8BRU6 whole entry): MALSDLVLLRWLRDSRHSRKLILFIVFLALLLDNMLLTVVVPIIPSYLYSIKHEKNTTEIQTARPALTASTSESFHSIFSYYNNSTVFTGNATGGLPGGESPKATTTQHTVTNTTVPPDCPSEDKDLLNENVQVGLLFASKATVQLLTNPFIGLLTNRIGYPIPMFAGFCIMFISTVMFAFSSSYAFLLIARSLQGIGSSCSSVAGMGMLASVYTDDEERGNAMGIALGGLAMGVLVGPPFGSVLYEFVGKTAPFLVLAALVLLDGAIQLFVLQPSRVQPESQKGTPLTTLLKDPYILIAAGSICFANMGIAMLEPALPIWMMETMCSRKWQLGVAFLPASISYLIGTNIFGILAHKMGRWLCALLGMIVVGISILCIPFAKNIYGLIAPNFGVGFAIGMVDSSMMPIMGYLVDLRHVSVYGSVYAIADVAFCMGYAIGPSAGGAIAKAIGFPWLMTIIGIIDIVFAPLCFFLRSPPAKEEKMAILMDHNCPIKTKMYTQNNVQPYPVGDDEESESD

The nature of experiment [4]: Vesicular DA content in purified striatal vesicles of treated rats. The class given is in vivo, rat. On the procedure:
Purified striatal vesicles were prepared as described above. The resulting vesicular pellet was sonicated for approximately 5 sec in cold tissue buffer (0.05 M sodium phosphate/0.03 M citric acid buffer with 15% methanol (v/v); pH 2.5) at a concentration of 100 mg/ml (original wet weight of tissue), and centrifuged for 15 min at 22,000×g. Tissue pellets were retained and protein was determined according to the method of Lowry et al. (1951). 40 μl of supernatant was injected onto a high performance liquid chromatograph system coupled to an electrochemical detector (+0.73 V) for separation and quantitation of DA levels using the method of Chapin et al. (1986).

The target in experiment [5] is T1, VMAT-2. As to the kind of experiment: [3H]DHTBZ binding in purified striatal vesicles prepared from treated rats.
Experimental: Synaptic vesicles were obtained from synaptosomes prepared from rat striatum as described above. Synaptosomes were resuspended and homogenized in cold distilled deionized water. Osmolarity was restored by addition of HEPES and potassium tartrate 245 and 100 mM (final concentrations; pH 7.5), respectively. Samples were centrifuged for 20 min at 20,000×g (4° C.) to remove lysed synaptosomal membranes. MgSO4 (1 mM, final concentration) was added to the supernatant, which was then centrifuged for 45 min at 100,000×g (4° C.). The resulting vesicular pellet was resuspended in wash buffer at a concentration of 50 mg/ml (original tissue weight). […] Binding of [^3H]DHTBZ was performed as described by Teng et al. (1998). Briefly, 200 μl of the synaptic vesicle preparation (˜6 μg of protein) was incubated in wash buffer in the presence of [^3H]DHTBZ (2 nM final concentration) for 10 min at 25° C. The reaction was terminated by addition of 1 ml of cold wash buffer and rapid filtration through Whatman GF/F filters soaked in 0.5% polyethylenimine. Filters were washed three times with ice-cold wash buffer. Nonspecific binding was determined by coincubation with 20 μM tetrabenazine. All protein concentrations were determined by a BioRad protein assay (Bio-Rad, Richmond, Calif.).
Binding of [^3H]DHTBZ was performed as described by Teng et al. (1998). Briefly, 200 μl (˜6 μg protein) of the synaptic vesicle preparation was incubated in wash buffer in the presence of [^3H]DHTBZ (2 nM final concentration except in kinetic analyses wherein 0.25-500 nM DHTBZ was employed) for 10 m in at 25° C. The reaction was terminated by addition of 1 ml cold wash buffer and rapid filtration through Whatman GF/F filters soaked in 0.5% polyethylenimine. Filters were washed three times with ice-cold wash buffer. Radioactivity trapped in filters was counted using a liquid scintillation counter. Nonspecific binding was determined by coincubation with 20 μM TBZ. All protein concentrations were determined by a Bio-Rad protein assay (Bio-Rad Inc.).
Binding of[^3H]DHTBZ was performed as described by Teng et al. (1998). Briefly, 200 μl (˜5 μg protein) of the synaptic vesicle preparation was incubated in wash buffer in the presence of [^3H]DHTBZ (2 nM final concentration except in kinetic analyses wherein 0.25-500 nM DHTBZ was employed) for 10 m in at 25° C. The reaction was terminated by addition of 1 ml cold wash buffer and rapid filtration through Whatman GF/F filters soaked in 0.5% polyethylenimine. Filters were washed three times with ice-cold wash buffer. Radioactivity trapped in filters was counted using a liquid scintillation counter. Nonspecific binding was determined by coincubation with 20 μM TBZ. All protein concentrations were determined by a Bio-Rad protein assay (Bio-Rad Inc.).
The mark [6] stands for this setting: METH 4 x 7.5 mg/kg s.c., 2-h intervals.
Setting [7] is: methamphetamine 4 x 10 mg/kg s.c.
Setting [8] is: rats, METH 4 x 7.5 mg/kg s.c., 2-h intervals.
Setting [9] is: rats, single 15 mg/kg METH injection s.c., 1 h.
[10] abbreviates: MPD-treated rats, 40 mg/kg s.c., 1 h.
The mark [11] stands for this setting: rats, MPD 5 mg/kg s.c. injections.

T1 sequence (Q01827 whole entry): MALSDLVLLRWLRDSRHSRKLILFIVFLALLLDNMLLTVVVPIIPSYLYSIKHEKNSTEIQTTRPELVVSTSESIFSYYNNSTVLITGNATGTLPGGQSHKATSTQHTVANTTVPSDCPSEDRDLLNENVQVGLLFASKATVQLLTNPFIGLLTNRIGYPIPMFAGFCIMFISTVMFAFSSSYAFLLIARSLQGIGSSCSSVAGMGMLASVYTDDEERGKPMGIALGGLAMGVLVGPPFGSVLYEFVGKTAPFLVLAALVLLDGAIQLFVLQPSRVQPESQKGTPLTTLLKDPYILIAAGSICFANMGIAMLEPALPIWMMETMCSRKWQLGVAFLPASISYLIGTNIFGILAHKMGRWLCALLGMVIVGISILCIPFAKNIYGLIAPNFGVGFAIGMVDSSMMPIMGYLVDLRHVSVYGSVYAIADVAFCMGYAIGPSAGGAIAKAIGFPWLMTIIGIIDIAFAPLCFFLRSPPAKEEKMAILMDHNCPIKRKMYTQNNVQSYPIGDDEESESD

In the case of `CN[C@@H](C)Cc1ccccc1` (racemic) [METH, methamphetamine], in the experiment on VMAT-2 [1] (setting [6]), the “VMAT-2 immunoreactivity in the plasmalemmal membrane fraction (P3)” value is “no change”, the “VMAT-2 immunoreactivity in the vesicular subcellular fraction (S3)” value is “rapidly decreased” and the “VMAT-2 immunoreactivity in the whole synaptosomal fraction (P2)” value is “Slight decreases; also recorded: no change”. Further, the “decrease in VMAT-2 immunoreactivity in the P2 fraction” value in the experiment with VMAT-2 [1] (methamphetamine 4 x 10 mg/kg s.c., 2-h intervals) came to 25%. Besides, the “decrease in VMAT-2 immunoreactivity in the P2 fraction” value in the experiment on VMAT-2 [1] (methamphetamine 4 x 10 mg/kg s.c., 2-h intervals, listed as methamphetamine) is 40%. In the experiment on VMAT-2 [1] (setting [7]), the “VMAT-2 immunoreactivity in the P3 fractions” value is given as “no difference” and the “decrease in VMAT-2 immunoreactivity in the S3 fraction” value worked out at 80%. Also, at VMAT-2 [2] (rats, METH 4 x 7.5 mg/kg s.c.), the “persistence of the decreases in vesicular DA uptake and DHTBZ binding after treatment” value was “at least 6 h”. Also, the “vesicular DA uptake 1 h after the last METH injection” value on VMAT-2 [2] (setting [8]) is “rapidly decreased”. Further, on VMAT-2 [2] (setting [9]), the “Vmax of vesicular [3H]DA uptake” value was found to be 607 fmol/μg protein/min and the Km – broadly, the concentration of substrate that gives half-maximal velocity – stood at 0.187 µM. The “decrease in vesicular [3H]DA uptake” value on VMAT-2 [2] (rats, single METH 15 mg/kg s.c., 1 h) is 25% and 23%. Moreover, the “deficit in vesicular [3H]DA uptake 24 h after treatment” value on VMAT-2 [2] (rats, single METH 15 mg/kg s.c., 24 h) is “recovered”. Further, the “vesicular [3H]dopamine uptake” value at VMAT-2 [3] (methamphetamine 4 x 10 mg/kg s.c., 2-h intervals, 1 and 24 h after treatment) is given as “rapidly decreased”. Moreover, the “vesicular DA levels” value in experiment [4] (METH-treated rats, 4 x 7.5 mg/kg s.c., 1 h after treatment, n=6) is 2.30±2.5 pg/μg protein. The “decrease in vesicular DA levels” value in experiment [4] (rats, METH 4 x 7.5 mg/kg s.c., 2-h intervals, 1 h after treatment) was 49%. Further, the “decrease in vesicular DA content” value in experiment [4] (rats, multiple METH, 6 h after drug treatment) came out at 60%. Also, at VMAT-2 [5] (setting [8]), the “DHTBZ binding 1 h after the last METH injection” value is reported as “rapidly decreased”.
For `COC(=O)C(c1ccccc1)C1CCCCN1` (centres unmarked) [MPD, methylphenidate], in the experiment with VMAT-2 [1] (MPD 40 mg/kg s.c. single), the “VMAT-2 immunoreactivity in the plasmalemmal membrane fraction” value is “decreased”, the “VMAT-2 immunoreactivity in the vesicular subcellular fraction” value is given as “increases” and the “VMAT-2 immunoreactivity in the whole synaptosomal fraction” value is recorded as “no change”. Moreover, at VMAT-2 [2] (setting [10]), the “transporter Vmax of vesicular [3H]DA uptake” value was found to be 2350±250 fmol/μg protein/3 min and the Km was 0.23 ± 0.01 µM. For the same molecule, the “effect of MPD post-treatment on the METH-induced decrease in vesicular DA uptake” value on VMAT-2 [2] (rat, in vivo) is on record as “reversed”. Moreover, the “vesicular DA uptake after MPD treatment per se” value at VMAT-2 [2] (setting [11]) is given as “increased”. Besides, the “vesicular [3H]DA uptake after a single MPD administration” value at VMAT-2 [2] (rats, MPD 5, 10, 20, or 40 mg/kg s.c., 1 h) is given as “increases”. Also, on VMAT-2 [2] (rats, after a 40 mg/kg MPD administration), the “reversal of the increases in vesicular [3H]DA uptake and [3H]DHTBZ binding” value is given as not above 12 h. Besides, the “onset of the increases in vesicular [3H]DA uptake and [3H]DHTBZ binding” value at VMAT-2 [2] (rats, single MPD s.c.) is reported as not above 30 min. On VMAT-2 [3] (methylphenidate 10 mg/kg s.c. or cocaine 30 mg/kg i.p., vesicles prepared 1 h after treatment), the “vesicular dopamine uptake after a single injection” value is given as “increased”. In addition, the “increase in vesicular DA levels” value in experiment [4] (rats, 3 injections of MPD 5 mg/kg s.c. over a 5 h period, 1 h after the last MPD injection) is on record as approximately 140%. Besides, the “effect of MPD post-treatment on the METH-induced decrease in vesicular DA content” value in experiment [4] (rats, 3 injections of MPD after multiple METH regimen, 6 h after METH treatment) is on record as “reversed”. Also, on VMAT-2 [5] (MPD-treated rats), the “transporter Bmax for [3H]DHTBZ” value worked out at 28.87 fmol/μg protein. Also, the “effect of MPD post-treatment on the METH-induced decrease in DHTBZ binding” value on VMAT-2 [5] (rats, 1, 2 or 3 injections of MPD 5 mg/kg s.c. during the initial 6-h period after METH) is reported as “reversed”. Besides, at VMAT-2 [5] (setting [11]), the “DHTBZ binding after MPD treatment per se” value is “increased”. Also, the “binding of the VMAT-2 ligand [3H]DHTBZ after a single MPD administration” value at VMAT-2 [5] (rats, MPD 5-40 mg/kg s.c., 1 h) is given as “increase”.
